Source: patent US20220073536A1 (Rigel Pharmaceuticals, Inc., priority 2003, published 2022)
Where a name gives a salt, the structure may show the parent alone.

The compounds below were run on cultured human mast cells (CHMC) (assay: CHMC low cell density IgE activation: tryptase assay). Conditions: Homo sapiens, Mast cell, low cell density CHMC, IgE activation, tryptase release, 8 pt; read-out: LD Tryptase, CHMC, IgE, 8 pt.
Type: cell-based
In short: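 Tryptase release, fluorogenic substrate, 30 min RT. Prior anti-IgE stimulation of CHMC, 30 min, 37 °C, after 1 hr preincubation at 1000–1500 cells/well in MT; unstimulated wells received MT.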

SMILES	IC50 [µM]
COc1ccc(Nc2nc(Nc3ccc4c(cnn4C(C)C)c3)ncc2F)cc1Cl [Compound 779, N4-(3-Chloro-4-methoxyphenyl)-5-fluoro-N2-[1-(1-methylethyl)indazol-5-yl]-2,4-pyrimidinediamine]	< 10
CC(C)n1ncc2cc(Nc3ncc(F)c(Nc4ccc5c(c4)NC(=O)C(C)(C)O5)n3)ccc21 [Compound 781, N4-(2,2-Dimethyl-3-oxo-4H-benz[1,4]oxazin-6-yl)-5-fluoro-N2-[1-(1-methylethyl)indazol-5-yl]-2,4-pyrimidinediamine]	< 10
CC(C)n1ncc2ccc(Nc3ncc(F)c(Nc4ccc5c(c4)NC(=O)C(C)(C)O5)n3)cc21 [Compound 785, N4-(2,2-Dimethyl-3-oxo-4H-benz[1,4]oxazin-6-yl)-5-fluoro-N2-[1-(1-methylethyl)indazol-6-yl]-2,4-pyrimidinediamine]	< 10
CC(C)n1ncc2ccc(Nc3ncc(F)c(Nc4ccc5c(c4)NC(=O)[C@H](C)O5)n3)cc21 [Compound 786, (S)-N4-[2-Methyl-3-oxo-2H,4H-benz[1,4]oxazin-6-yl]-5-fluoro-N2-[1-(1-methylethyl)indazol-6-yl]-2,4-pyrimidinediamine]	< 10
Cn1nc(N)c2cc(Nc3ncc(F)c(Nc4ccc(Cl)c(Cl)c4)n3)ccc21 [Compound 805, N2-(3-Amino-1-methylindazol-5-yl)-N4-(3,4-dichlorophenyl)-5-fluoro-2,4-pyrimidinediamine]	< 10
CC(=O)NCCCn1ncc2cc(Nc3ncc(F)c(Nc4ccc5c(n4)NC(=O)C(C)(C)O5)n3)ccc21 [Compound 822, N2-[1-[3-(N-Acetylamino)propyl]indazol-5-yl]-N4-(2,2-dimethyl-3-oxo-4H-5-pyrid[1,4]oxazin-6-yl)-5-fluoro-2,4-pyrimidinediamine]	< 10
COc1ccc(Nc2nc(Nc3ccc4c(cnn4CCCN)c3)ncc2F)cc1Cl [Compound 823, N2-[1-(3-Aminopropyl)indazol-5-yl]-N4-(3-chloro-4-methoxyphenyl)-5-fluoro-2,4-pyrimidinediamine]	< 10
CC1(C)Oc2ccc(Nc3nc(Nc4ccc5c(cnn5CCCN)c4)ncc3F)cc2NC1=O [Compound 825, N2-[1-(3-Aminopropyl)indazol-5-yl]-N4-(2,2-dimethyl-3-oxo-4H-benz[1,4]oxazin-6-yl)-5-fluoro-2,4-pyrimidinediamine]	< 10
C[C@@H]1Oc2ccc(Nc3nc(Nc4ccc5c(cnn5CCCN)c4)ncc3F)cc2NC1=O [Compound 826, (S)-N2-[1-(3-Aminopropyl)indazol-5-yl]-5-fluoro-N4-(2-methyl-3-oxo-2H,4H-benz[1,4]oxazin-6-yl)-2,4-pyrimidinediamine]	< 10
COc1ccc(Nc2nc(Nc3ccc4c(cnn4CCCO)c3)ncc2F)cc1Cl [Compound 828, N4-(3-Chloro-4-methoxyphenyl)-5-fluoro-N2-[1-(3-hydroxypropyl)indazol-5-yl]-2,4-pyrimidinediamine Bis p-Toluenesulfonic Acid Salt]	< 10

More lines, now with the values ahead:

IC50 [µM]	SMILES
< 10	CC(C)n1ncc2cc(Nc3ncc(F)c(Nc4ccc(Cl)c(Cl)c4)n3)ccc21 [Compound 780, N4-(3,4-Dichlorophenyl)-5-fluoro-N2-[1-(1-methylethyl)indazol-5-yl]-2,4-pyrimidinediamine]
< 10	COc1cc(Nc2nc(Nc3ccc4c(cnn4C(C)C)c3)ncc2F)ccc1F [Compound 782, 5-Fluoro-N4-(4-fluoro-3-methoxyphenyl)-N2-[1-(1-methylethyl)indazol-5-yl]-2,4-pyrimidinediamine]
< 10	COc1ccc(Nc2nc(Nc3ccc4cnn(C(C)C)c4c3)ncc2F)cc1Cl [Compound 783, N4-(3-Chloro-4-methoxyphenyl)-5-fluoro-N2-[1-(1-methylethyl)indazol-6-yl]-2,4-pyrimidinediamine]
< 10	CC(C)n1ncc2ccc(Nc3ncc(F)c(Nc4ccc(Cl)c(Cl)c4)n3)cc21 [Compound 784, N4-(3,4-Dichlorophenyl)-5-fluoro-N2-[1-(1-methylethyl)indazol-6-yl]-2,4-pyrimidinediamine]
< 10	Cn1nc(N)c2cc(Nc3ncc(F)c(Nc4ccc5c(c4)NC(=O)C(C)(C)O5)n3)ccc21 [Compound 806, N2-(3-Amino-1-methylindazol-5-yl)-N4-(2,2-dimethyl-3-oxo-4H-benz[1,4]oxazin-6-yl)-5-fluoro-2,4-pyrimidinediamine]
< 10	CC(=O)NCCCn1ncc2cc(Nc3ncc(F)c(Nc4ccc(Cl)c(Cl)c4)n3)ccc21 [Compound 820, N2-[1-[3-(N-Acetylamino)propyl]indazol-5-yl]-N4-(3,4-dichlorophenyl)-5-fluoro-2,4-pyrimidinediamine]
< 10	CC(=O)NCCCn1ncc2cc(Nc3ncc(F)c(Nc4ccc5c(c4)NC(=O)C(C)(C)O5)n3)ccc21 [Compound 821, N2-[1-[3-(N-Acetylamino)propyl]indazol-5-yl]-N4-(2,2-dimethyl-3-oxo-4H-benz[1,4]oxazin-6-yl)-5-fluoro-2,4-pyrimidinediamine]
< 10	NCCCn1ncc2cc(Nc3ncc(F)c(Nc4ccc(Cl)c(Cl)c4)n3)ccc21 [Compound 824, N2-[1-(3-Aminopropyl)indazol-5-yl]-N4-(3,4-dichlorophenyl)-5-fluoro-2,4-pyrimidinediamine]

Same assay, conditions: Homo sapiens, Mast cell, low cell density CHMC, IgE activation, tryptase, 3 pt; read-out: LD Tryptase, CHMC, IgE, 3 pt

SMILES	IC50 [µM]
COc1cc(Nc2nc(Nc3cc4cnn(C)c4cc3C)ncc2F)ccc1F [Compound 759, N2-(1,6-Dimethylindazol-5-yl)-5-fluoro-N4-(4-fluoro-3-methoxyphenyl)-2,4-pyrimidinediamine]	< 10
CCCn1cc2ccc(Nc3ncc(F)c(Nc4ccc5c(c4)NC(=O)C(C)(C)O5)n3)cc2n1 [Compound 764, N4-(2,2-Dimethyl-3-oxo-4H-benz[1,4]oxazin-6-yl)-5-fluoro-N2-(2-n-propylindazol-6-yl)-2,4-pyrimidinediamine]	< 10

Next, values leading:

IC50 [µM]	SMILES
< 10	Cc1cc2c(cnn2C)cc1Nc1ncc(F)c(Nc2ccc(Cl)c(Cl)c2)n1 [Compound 757, N4-(3,4-Dichlorophenyl)-N2-(1,6-dimethylindazol-5-yl)-5-fluoro-2,4-pyrimidinediamine]
< 10	Cc1cc2c(cnn2C)cc1Nc1ncc(F)c(Nc2ccc3c(c2)NC(=O)C(C)(C)O3)n1 [Compound 758, N2-(1,6-Dimethylindazol-5-yl)-N4-(2,2-dimethyl-3-oxo-4H-benz[1,4]oxazin-6-yl)-5-fluoro-2,4-pyrimidinediamine]
< 10	CCn1cc2ccc(Nc3ncc(F)c(Nc4ccc(Cl)c(Cl)c4)n3)cc2n1 [Compound 760, N4-(3,4-Dichlorophenyl)-N2-(2-ethylindazol-6-yl)-5-fluoro-2,4-pyrimidinediamine]
< 10	CCCn1cc2cc(Nc3ncc(F)c(Nc4ccc(Cl)c(Cl)c4)n3)ccc2n1 [Compound 762, N4-(3,4-Dichlorophenyl)-5-fluoro-N2-(2-n-propylindazol-5-yl)-2,4-pyrimidinediamine]
< 10	CCCn1cc2cc(Nc3ncc(F)c(Nc4ccc5c(c4)NC(=O)C(C)(C)O5)n3)ccc2n1 [Compound 763, N4-(2,2-Dimethyl-3-oxo-4H-benz[1,4]oxazin-6-yl)-5-fluoro-N2-(2-n-propylindazol-5-yl)-2,4-pyrimidinediamine]
< 10	CCCn1cc2ccc(Nc3ncc(F)c(Nc4ccc(Cl)c(Cl)c4)n3)cc2n1 [Compound 765, N4-(3,4-Dichlorophenyl)-5-fluoro-N2-(2-n-propylindazol-6-yl)-2,4-pyrimidinediamine]

Same assay, conditions: Homo sapiens, Mast cell, low cell density CHMC, IgE activation, tryptase, 8 pt; read-out: LD Tryptase, CHMC, IgE, 8 pt

IC50 [µM]	SMILES
< 10	Cc1cc2c(cnn2C)cc1Nc1ncc(F)c(Nc2ccc3c(c2)NC(=O)C(C)(C)O3)n1 [Compound 758, N2-(1,6-Dimethylindazol-5-yl)-N4-(2,2-dimethyl-3-oxo-4H-benz[1,4]oxazin-6-yl)-5-fluoro-2,4-pyrimidinediamine]
< 10	CCn1cc2ccc(Nc3ncc(F)c(Nc4ccc(Cl)c(Cl)c4)n3)cc2n1 [Compound 760, N4-(3,4-Dichlorophenyl)-N2-(2-ethylindazol-6-yl)-5-fluoro-2,4-pyrimidinediamine]
< 10	CCCn1cc2cc(Nc3ncc(F)c(Nc4ccc(Cl)c(Cl)c4)n3)ccc2n1 [Compound 762, N4-(3,4-Dichlorophenyl)-5-fluoro-N2-(2-n-propylindazol-5-yl)-2,4-pyrimidinediamine]
< 10	CCCn1cc2cc(Nc3ncc(F)c(Nc4ccc5c(c4)NC(=O)C(C)(C)O5)n3)ccc2n1 [Compound 763, N4-(2,2-Dimethyl-3-oxo-4H-benz[1,4]oxazin-6-yl)-5-fluoro-N2-(2-n-propylindazol-5-yl)-2,4-pyrimidinediamine]
< 10	CCCn1cc2ccc(Nc3ncc(F)c(Nc4ccc5c(c4)NC(=O)C(C)(C)O5)n3)cc2n1 [Compound 764, N4-(2,2-Dimethyl-3-oxo-4H-benz[1,4]oxazin-6-yl)-5-fluoro-N2-(2-n-propylindazol-6-yl)-2,4-pyrimidinediamine]
< 10	CCCn1cc2ccc(Nc3ncc(F)c(Nc4ccc(Cl)c(Cl)c4)n3)cc2n1 [Compound 765, N4-(3,4-Dichlorophenyl)-5-fluoro-N2-(2-n-propylindazol-6-yl)-2,4-pyrimidinediamine]

Same assay, conditions: low cell density CHMC, IgE activation, tryptase release, 8 pt; read-out: LD Tryptase, CHMC, IgE, 8 pt

SMILES	IC50 [µM]
Cc1n[nH]c2cc(Nc3ncc(F)c(Nc4ccc5c(n4)NC(=O)C(C)(C)O5)n3)ccc12 [Compound 813, N4-(2,2-Dimethyl-3-oxo-4H-5-pyrid[1,4]oxazin-6-yl)-5-fluoro-N2-(3-methyl-1H-indazol-6-yl)-2,4-pyrimidinediamine]	< 10
COc1ccc(Nc2nc(Nc3ccc4c(cnn4CCCN4C(=O)c5ccccc5C4=O)c3)ncc2F)cc1Cl [Compound 815, N4-(3-Chloro-4-methoxyphenyl)-5-fluoro-N2-[1-[3-(N-phthalimidopropyl)]indazol-5-yl]-2,4-pyrimidinediamine]	< 10
O=C1c2ccccc2C(=O)N1CCCn1ncc2cc(Nc3ncc(F)c(Nc4ccc(Cl)c(Cl)c4)n3)ccc21 [Compound 816, N4-(3,4-Dichlorophenyl)-5-fluoro-N2-[1-[3-(N-phthalimidopropyl)]indazol-5-yl]-2,4-pyrimidinediamine]	> 10

More lines, now with the values ahead:

IC50 [µM]	SMILES
< 10	Cc1nn(C)c2cc(Nc3ncc(F)c(Nc4ccc5c(n4)NC(=O)C(C)(C)O5)n3)ccc12 [Compound 812, N2-(1,3-Dimethylindazol-6-yl)-N4-(2,2-dimethyl-3-oxo-4H-5-pyrid[1,4]oxazin-6-yl)-5-fluoro-2,4-pyrimidinediamine]
< 10	COCCCn1ncc2cc(Nc3ncc(F)c(Nc4ccc5c(n4)NC(=O)C(C)(C)O5)n3)ccc21 [Compound 814, N4-(2,2-Dimethyl-3-oxo-4H-5-pyrid[1,4]oxazin-6-yl)-5-fluoro-N2-[1-(3-methoxypropyl)indazol-5-yl]-2,4-pyrimidinediamine]
< 10	CC1(C)Oc2ccc(Nc3nc(Nc4ccc5c(cnn5CCCN5C(=O)c6ccccc6C5=O)c4)ncc3F)cc2NC1=O [Compound 817, N4-(2,2-Dimethyl-3-oxo-4H-benz[1,4]oxazin-6-yl)-5-fluoro-N2-[1-[3-(N-phthalimidopropyl)]indazol-5-yl]-2,4-pyrimidinediamine]
< 10	C[C@@H]1Oc2ccc(Nc3nc(Nc4ccc5c(cnn5CCCN5C(=O)c6ccccc6C5=O)c4)ncc3F)cc2NC1=O [Compound 818, (S)-5-Fluoro-N4-(2-methyl-3-oxo-2H,4H-benz[1,4]oxazin-6-yl)-N2-[1-[3-(N-phthalimidopropyl)]indazol-5-yl]-2,4-pyrimidinediamine]
